# Results: patent US4067982A, “Aryl-substituted piperazinyl-alkylamino-uracils, -uracil ethers and -uracil thioethers as therapeutics” (priority 1976, dated 1978)
# Tests used:
# [1] = tested on: systolic and diastolic blood pressure; assay: Clinical test, blood pressure in patients; assay type: in vivo, human
# Procedure: (§1) Clinical tests were conducted with the 1,3-dimethyl-4-(γ-[4(o-methoxyphenyl)-piperazinyl-(1)]-propylamino)- uracil on two female and three male patients, with doses of 10, 20, 40 and 60 mg orally administered.
# Attached Diagrams 1 and 2 show the changes of the blood pressure under the effect of various doses of 1,3-dimethyl-4-(γ-[4-(o-methoxyphenyl)-piperazinyl-(1)]-propylamino)-uracil. […] Diagram 2shows the changes of the diastolic blood pressure with the same doses of the uracil compound at an average starting diastolic blood pressure (RRd) of 95.3 mm Hg plotted against the dose of the uracil compound.
# patients = assay: Clinical test, compatibility and sensory functions in patients; assay type: in vivo, human; conditions: two female and three male patients; 10, 20, 40 and 60 mg oral
# Procedure: as §1
# [2] = tested on: blood pressure increasing effect of adrenaline; assay: Inhibition of the pressor effect of adrenaline, despinalized rat; assay type: in vivo; conditions: iv, 0.001 mg/kg i.v. adrenaline, read-out: 50% inhibition of the press. effect after i.v. administration of adrenaline with
# [3] = tested on: carotid sinus relaxation reflex of the narcotized cat; assay: Inhibition of the carotid sinus reflex, narcotized cat; assay type: in vivo; conditions: Felis catus, iv; for ED30: 30% inhibition; for ED50: 50% inhibition
# [4] = tested on: blood pressure of the narcotized rat; assay: Lowering of the blood pressure, narcotized rat; assay type: in vivo; design: unit not given here; conditions: 30% lowering
# mouse [5] = assay: Inhibition of the motility in the tread wheel, mouse; assay type: in vivo; conditions: ip, 3 h; mouse, 25 mg/kg i.p.; 5 mg/kg d-amphetamine-sulfate; 180 minutes; read-out: % Inhibition of the motility in the tread wheel by 25 mg/kg i.p.
# [6] = tested on: blood pressure of the narcotized cat; assay: Lowering of the blood pressure, narcotized cat; assay type: in vivo; conditions: Felis catus, iv; for ED30: 30% lowering; for ED50: 50% lowering
# Solubility = assay type: physicochemical
# mouse [7] = assay: SD50, sedation symptoms, mouse; assay type: in vivo; conditions: mouse, oral; dose at which 50% show inhibition of spontaneous motility, sedation, muscle relaxation, loss of gripping; read-out: SD50 (the source's name)
# mouse [8] = assay: Analgesic effect, thermal stimulation of the tail of the mouse; assay type: in vivo; conditions: oral, 25% retardation, read-out: Retardation of the defense reaction upon thermal stimulation of the tail of the mouse by 25%
# Source text: The analgesic effect was thereby determined as the delay in the reaction upon thermal stimulation of the tail of the mouse.
# [9] = tested on: blood pressure increasing effect of noradrenaline; assay: Inhibition of the pressor effect of noradrenaline, despinalized rat; assay type: in vivo; conditions: iv, 0.001 mg/kg i.v. noradrenaline, read-out: 50% inhibition of the press. effect after i.v. administration of noradrenaline with
# in vivo = conditions: mouse
# mouse [10] = assay: PD50, rotating rod, mouse; assay type: in vivo; conditions: ip; mouse, i.p.; dose at which an average of 50% of the mice fall from a rotating rod; read-out: PD50
# Source text: The centrally inhibiting effect of the piperazinyl uracils of the invention in the mouse are apparent from Table IV. […] The selective action of the compounds of the invention on the central blood pressure mechanism can be used advantageously in human therapy in the treatment of hypertonic diseases.
# a = Dose, at which an average of 50% of the mice fall from a rotating rod.
# mouse [11] = assay: Prolongation of sleep induced by hexobarbital, mouse; assay type: in vivo; conditions: ip; mouse, 15 mg/kg i.p.; 75 mg/kg hexobarbital; vs controls; read-out: % prolongation of sleep induced by hexobarbital by 15 mg/kg i.p.
# [12] = tested on: blood pressure, circulatory system and central nervous system; conditions: recognized; cited from earlier work
SMILES,"dose response of blood pressure lowering (Diagrams 1 and 2) ([1]; doses 0 to 60 mg, average starting RRs 171.9 mm Hg, RRd 95.3 mm Hg)","difference in the effect of a dose of 20 mg and a dose of 40 mg ([1]; patients, 20 mg vs 40 mg)","lowering of the systolic and diastolic blood pressure ([1]; two female and three male patients, 10, 20, 40 and 60 mg oral)",compatibility (patients),effect on perception and other sensory functions (patients),ED50 [2] [mg/kg],ED30 [3] [mg/kg],ED50 [3] [mg/kg],lowering of the blood pressure by 30% by [4],inhibition in vivo at 25 mg/kg (mouse [5]) [%],ED30 [6] [mg/kg],ED50 [6] [mg/kg],solubility in aqueous acetone (Solubility),ED50 (mouse [7]) [mg/kg],ED25 (mouse [8]) [mg/kg],ED50 [9] [mg/kg],LD50 (in vivo) [mg/kg],ED50 (mouse [10]) [mg/kg],change in vivo at 15 mg/kg (mouse [11]) [%],mechanism of phentolamine [12]
"COc1ccccc1N1CCN(CCCNc2cc(=O)n(C)c(=O)n2C)CC1 [Example 4, 1,3-Dimethyl-4-(γ-[4-(o-methoxyphenyl)piperazinyl-(1)]-propylamino)-uracil]",the blood pressure is progressively lowered in response to an increasing dose of the uracil compound,statistically confirmed,statistically significant lowering of the systolic and diastolic blood pressure,excellent compatibility,no adverse effect on perception and other sensory functions,0.36,0.03,0.16,0.71,36,0.14,0.65,readily soluble in aqueous acetone,100,2.4,1.9,400,52,71,–
"Cc1ccc(N(CC2=NCCN2)c2cccc(O)c2)cc1 [Phentolamine, 2-[N'-p-tolyl-N'-(m-hydroxyphenyl)-aminomethyl]-2-imidiozoline, reference compound]",–,–,–,–,–,0.047,0.1,0.5,0.63,–,0.1,0.7,–,–,–,0.18,–,–,–,"specifically inhibiting the stimulating effect of adrenaline and noradrenaline, typical alpha-blocking agent"
